The values below are quoted from earlier work in patent US8841262B2, “Agent for inhibiting peritoneal membrane thickening” (CCI Corporation, priority 2009, dated 2014).

The subject of series [1] is vascular endothelial growth factor (VEGF). The settings on record: administration of TNP-470, reported in Non-Patent Literature 1.
Series [2] relates to peritoneal membrane thickening. The settings on record: ganciclovir infused into the abdominal cavity, in 2 weeks; reported in Non-Patent Literature 3.

The structures appear in SMILES notation.

`CO[C@@H]1[C@H](OC(=O)NC(=O)CCl)CC[C@]2(CO2)[C@H]1[C@@]1(C)O[C@@H]1CC=C(C)C` [TNP-470]: in series [1], the myofibroblastic cell proliferation entry is “suppression” and the neoangiogenesis entry is “inhibition”.
As for `Nc1nc(O)c2ncn(COC(CO)CO)c2n1` [ganciclovir], the “peritoneal membrane thickening after chlorhexidine” value in series [2] is listed as “alleviated”.
